In ChEMBL document CHEMBL1149428, “Design, synthesis, and biological activity of novel polycyclic aza-amide FKBP12 ligands” (J Med Chem, 2006):

The compounds below were run against Peptidyl-prolyl cis-trans isomerase FKBP1A (Homo sapiens, UniProt P62942) (assay: Inhibition of FKBP12 rotamase activity).
Sequence of Peptidyl-prolyl cis-trans isomerase FKBP1A (P62942 whole entry): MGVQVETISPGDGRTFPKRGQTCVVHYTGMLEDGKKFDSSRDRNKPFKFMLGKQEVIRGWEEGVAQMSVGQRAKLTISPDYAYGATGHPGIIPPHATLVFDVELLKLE

Row | Ki | Compound
1 | 0.183 µM | COc1ccc2c(c1)CCN1C(=O)C3CCCC(C21)N3S(=O)(=O)Nc1ccc(F)nc1 (centres undefined)
2 | 0.126 µM | COc1cc(C(=O)C(=O)N2C3CCCC2C2c4cc(Cl)ccc4CCN2C3=O)cc(OC)c1OC (centres undefined)
3 | 0.082 µM | COc1cc2c(c(OC)c1)C1C3CCCC(C(=O)N1CC2)N3S(=O)(=O)c1ccc(C#N)cc1 (centres undefined)
4 | 0.266 µM | CCc1ccc(S(=O)(=O)N2C3CCCC2C2c4c(cc(OC)cc4OC)CCN2C3=O)cc1 (centres undefined)
5 | 0.156 µM | COc1cc2c(c(OC)c1)C1C3CCCC(C(=O)N1CC2)N3S(=O)(=O)c1ccc(-c2ccc(Cl)c(Cl)c2)cc1 (centres undefined)
6 | 0.236 µM | COc1ccc2c(c1)CCN1C(=O)C3CCCC(C21)N3S(=O)(=O)Nc1cc(F)c(F)c(F)c1 (centres undefined)
7 | 0.072 µM | COc1cc2c(c(OC)c1)C1C3CCCC(C(=O)N1CC2)N3C(=O)C(=O)c1ccc(Cl)cc1 (centres undefined)
8 | 0.1 µM | COc1cc2c(c(OC)c1)C1C3CCCC(C(=O)N1CC2)N3C(=O)C(=O)c1ccccc1 (centres undefined)
9 | 0.36 µM | COc1ccc2c(c1)CCN1C(=O)C3CCCC(C21)N3S(=O)(=O)Nc1ccc(Cl)nc1 (centres undefined)
10 | 0.06 µM | COc1cc2c(c(OC)c1)C1C3CCCC(C(=O)N1CC2)N3C(=O)C(=O)c1ccc(OC)c(OC)c1 (centres undefined)
11 | 0.33 µM | COc1cc2c(c(OC)c1)C1C3CCCC(C(=O)N1CC2)N3C(=O)N(c1ccccc1C)c1ccccc1C (centres undefined)
12 | 0.123 µM | CCc1ccc(C(=O)C(=O)N2C3CCCC2C2c4c(cc(OC)cc4OC)CCN2C3=O)cc1 (centres undefined)
13 | 0.069 µM | COc1cc2c(c(OC)c1)C1C3CCCC(C(=O)N1CC2)N3C(=O)C(=O)c1cc(OC)c(OC)c(OC)c1 (centres undefined)
14 | 0.034 µM | COc1cc(OC)cc(C(=O)C(=O)N2C3CCCC2C2c4c(cc(OC)cc4OC)CCN2C3=O)c1 (centres undefined)
15 | 0.583 µM | COc1cc2c(c(OC)c1)C1C3CCCC(C(=O)N1CC2)N3C(=O)C(=O)c1ccccc1Cl (centres undefined)
16 | 0.11 µM | COc1cc2c(c(OC)c1)C1C3CCCC(C(=O)N1CC2)N3C(=O)C(=O)c1ccc(F)cc1 (centres undefined)
17 | 0.225 µM | COc1cc(C(=O)C(=O)N2C3CCCC2C2c4cc(F)ccc4CCN2C3=O)cc(OC)c1OC (centres undefined)
18 | 0.201 µM | COc1cc(C(=O)C(=O)N2C3CCCC2C2c4c(F)cccc4CCN2C3=O)cc(OC)c1OC (centres undefined)
19 | 0.046 µM | COc1cc2c(c(OC)c1)C1C3CCCC(C(=O)N1CC2)N3C(=O)C(=O)c1cccc(Cl)c1 (centres undefined)
20 | 0.244 µM | COc1cc2c(c(OC)c1)C1C3CCCC(C(=O)N1CC2)N3S(=O)(=O)c1ccccc1 (centres undefined)

Row | Ki | Compound
21 | 0.15 µM | COc1ccc2c(c1)CCN1C(=O)C3CCCC(C21)N3S(=O)(=O)Nc1ccc(F)c(F)c1 (centres undefined)
22 | 0.591 µM | COc1ccc2c(c1)CCN1C(=O)C3CCCC(C21)N3S(=O)(=O)Nc1ccc(N2CCOCC2)nc1 (centres undefined)
23 | 0.143 µM | COc1ccc2c(c1)CCN1C(=O)C3CCCC(C21)N3C(=O)C(=O)c1cc(OC)c(OC)c(OC)c1 (centres undefined)
24 | 20.8 µM | COc1cc2c(c(OC)c1)C1C3CCCC(C(=O)N1CC2)N3C(=O)C(=O)c1cc(C(C)(C)C)c(O)c(C(C)(C)C)c1 (centres undefined)
25 | 0.071 µM | COc1cc2c(c(OC)c1)C1C3CCCC(C(=O)N1CC2)N3C(=O)C(=O)c1ccc(Br)cc1 (centres undefined)
26 | 1 µM | CCN(CC)c1ccc(C(=O)C(=O)N2C3CCCC2C2c4c(cc(OC)cc4OC)CCN2C3=O)cc1 (centres undefined)
27 | 0.171 µM | COc1cc(C(=O)C(=O)N2C3CCCC2C2c4ccc(Cl)cc4CCN2C3=O)cc(OC)c1OC (centres undefined)
28 | 3.1 µM | COc1cc2c(c(OC)c1)C1C3CCCC(C(=O)N1CC2)N3C(=O)Cc1ccc(Cl)cc1 (centres undefined)
29 | 0.152 µM | COc1cc(C(=O)C(=O)N2C3CCCC2C2c4cccc(Cl)c4CCN2C3=O)cc(OC)c1OC (centres undefined)
30 | 0.238 µM | COc1cc2c(c(OC)c1)C1C3CCCC(C(=O)N1CC2)N3C(=O)C(=O)c1ccccc1O (centres undefined)
31 | 0.59 µM | COc1ccc2c(c1)CCN1C(=O)C3CCCC(C21)N3S(=O)(=O)Nc1cc(F)c(F)cc1F (centres undefined)
32 | 0.107 µM | COc1cc2c(c(OC)c1)C1C3CCCC(C(=O)N1CC2)N3C(=O)C(=O)c1cccs1 (centres undefined)
33 | 0.279 µM | COc1cc2c(c(OC)c1)C1C3CCCC(C(=O)N1CC2)N3C(=O)C(=O)c1ccco1 (centres undefined)
34 | 0.131 µM | COc1ccc(C(=O)C(=O)N2C3CCCC2C2c4c(cc(OC)cc4OC)CCN2C3=O)cc1 (centres undefined)
35 | 0.084 µM | COc1cc2c(c(OC)c1)C1C3CCCC(C(=O)N1CC2)N3S(=O)(=O)c1ccc(C)cc1 (centres undefined)
36 | 0.772 µM | COc1cc2c(c(OC)c1)C1C3CCCC(C(=O)N1CC2)N3C(=O)N(c1ccc([N+](=O)[O-])cc1)c1ccc([N+](=O)[O-])cc1 (centres undefined)
37 | 0.034 µM | COc1cc2c(c(OC)c1)C1C3CCCC(C(=O)N1CC2)N3C(=O)C(=O)c1ccc(Cl)c(Cl)c1 (centres undefined)
38 | 0.21 µM | COc1ccc2c(c1)CCN1C(=O)C3CCCC(C21)N3S(=O)(=O)Nc1ccc(OC)nc1 (centres undefined)
39 | 0.054 µM | COc1cc2c(c(OC)c1)C1C3CCCC(C(=O)N1CC2)N3S(=O)(=O)c1cccc(Br)c1 (centres undefined)
40 | 0.282 µM | COc1cc2c(c(OC)c1)C1C3CCCC(C(=O)N1CC2)N3C(=O)C(=O)c1cccc(Cl)c1Cl (centres undefined)

Row | Ki | Compound
41 | 0.36 µM | COc1ccc2c(c1)CCN1C(=O)C3CCCC(C21)N3S(=O)(=O)N1CCCCC1 (centres undefined)
42 | 31.7 µM | COc1cc2c(c(OC)c1)C1C3CCCC(CN1CC2)N3C(=O)C(=O)c1cc(OC)c(OC)c(OC)c1 (centres undefined)
43 | 0.11 µM | COc1cc2c(c(OC)c1)C1C3CCCC(C(=O)N1CC2)N3C(=O)C(=O)c1cccnc1 (centres undefined)
44 | 0.208 µM | COc1cc2c(c(OC)c1)C1C3CCCC(C(=O)N1CC2)N3C(=O)C(O)c1ccc(Cl)cc1 (centres undefined)
45 | 7 µM | COc1cc2c(c(OC)c1)C1C3CCCC(C(=O)N1CC2)N3C(=O)N(c1ccc(F)cc1F)c1ccc(F)cc1F (centres undefined)
46 | 2.3 µM | COc1cc2c(c(OC)c1)C1C3CCCC(C(=O)N1CC2)N3C(=O)C(=O)c1cc2ccccc2[nH]1 (centres undefined)
47 | 0.104 µM | COc1cc2c(c(OC)c1)C1C3CCCC(C(=O)N1CC2)N3S(=O)(=O)c1cccc(C)c1 (centres undefined)
48 | 0.217 µM | COc1cc(C(=O)C(=O)N2C3CCCC2C2c4ccccc4CCN2C3=O)cc(OC)c1OC (centres undefined)
49 | 2.7 µM | COc1cc2c(c(OC)c1)C1C3CCCC(C(=O)N1CC2)N3C(=O)N(c1ccccc1)c1ccccc1 (centres undefined)
50 | 0.64 µM | COc1ccc2c(c1)CCN1C(=O)C3CCCC(C21)N3S(=O)(=O)Nc1cc(OC)c(OC)c(OC)c1 (centres undefined)
51 | 0.153 µM | COc1cc2c(c(OC)c1)C1C3CCCC(C(=O)N1CC2)N3C(=O)C(=O)c1cc(Cl)ccc1Cl (centres undefined)
52 | 0.085 µM | COc1cc(C(=O)C(=O)N2C3CCCC2C2c4cc(C)ccc4CCN2C3=O)cc(OC)c1OC (centres undefined)
53 | 0.091 µM | COc1cc2c(c(OC)c1)C1C3CCCC(C(=O)N1CC2)N3C(=O)C(F)(F)c1cc(OC)c(OC)c(OC)c1 (centres undefined)
54 | 0.288 µM | COc1cc2c(c(OC)c1)C1C3CCCC(C(=O)N1CC2)N3S(=O)(=O)c1ccc(Nc2cc(OC)c(OC)c(OC)c2)cc1 (centres undefined)
55 | 0.092 µM | COc1cc2c(c(OC)c1)C1C3CCCC(C(=O)N1CC2)N3S(=O)(=O)c1ccc(Br)cc1 (centres undefined)
56 | 0.586 µM | COc1cc2c(c(OC)c1)C1C3CCCC(C(=O)N1CC2)N3C(=O)C(=O)c1ccc(Cl)cc1Cl (centres undefined)
57 | 0.123 µM | COc1ccc2c(c1)CCN1C(=O)C3CCCC(C21)N3S(=O)(=O)N1C[C@@H](C)O[C@@H](C)C1 (some centres undefined)
58 | 0.357 µM | COc1cc2c(c(OC)c1)C1C3CCCC(C(=O)N1CC2)N3C(=O)N(c1ccccc1OC)c1ccccc1OC (centres undefined)

Row | Compound | Ki
59 | COc1cccc2c1CCN1C(=O)C3CCCC(C21)N3C(=O)C(=O)c1cc(OC)c(OC)c(OC)c1 (centres undefined) | 0.105 µM
